Among the data in PubChem BioAssay AID602444 (National Center for Advancing Translational Sciences (NCATS), 2012) are percent remaining values, retold here.

The subject of this data set is mouse liver microsomes without NADPH, percent remaining. The data set is described as follows: High Content Assay for Compounds that inhibit the Assembly of the Perinucleolar Compartment: Mouse Liver Microsome Stability without NADPH. The settings on record: hits give low values. The source says:
The perinucleolar compartment (PNC) is a non-membrane-bound nuclear subdomain that is associated with but structurally distinct from the nucleolus. The PNC is a heritable trait, in which the number of PNCs per cell in daughter cells often mimics that of their mother cells. The PNC is heterogeneous in shape, is stable through interphase, disassembles during mitosis, and reassembles in early G1. The PNC is concentrated with newly synthesized RNA polymerase III (pol III) RNAs (MRP RNA, RNAse P H1 RNA, hY RNAs[hY1, 2, 5], Alu RNA, and SRP [7SL] RNA) and RNA binding proteins (nucleolin, PTB, CUG-BP, KSRP, Raver1, Raver2, and Rod).
Extensive in vitro studies have shown that the PNC is unique to tumor cells and preferentially forms in tumor cells derived from solid tissues. Examination of cancer cell lines from various origins and malignant capacities has shown that PNC prevalence correlates with the malignancy of tumors and has the potential to be developed as a pan-cancer prognostic marker.
Mouse liver microsomes are generated from lysed mouse liver. Liver microsomes contain many drug metabolizing enzymes, including Cytochome P-450s and flavin-containing monooxygenases. Because drug metabolism is major way of drug clearance, this is an important result. […]
1uM of compound in incubated in mouse liver microsome; the reference compound is ketanserin. […] Samples are analyzed with LC-MS/MS.
(Liver microsomes are vesicles of endoplasmic reticulum, rich in cytochrome P450 enzymes.)

Take `N=c1c2c(-c3ccccc3)c(-c3ccccc3)n(Cc3ccccc3)c2ncn1C1CCC(O)CC1` (stereo unspecified): the percent remaining is 106%.
